Assay results as given in ChEMBL document CHEMBL1201862, “PubChem BioAssay data set” (2004).
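These data come from cells grown in 96-well plates and exposed to compound for 48 hours at five concentrations. Abbreviation: GI50, concentration required for 50% inhibition of growth.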 Activity calls are given as the source filed them. Cut-off read from the data, not from the text of the source: active = GI50 up to about 1.1 µM and inactive = higher.

Key:
Test in all cases: NCI tumour cell line growth inhibition, 48 h
EKVX = test system: EKVX
HCT-15 = test system: HCT-15
HL-60 = test system: HL-60
HT-29 = test system: HT-29
K562 = test system: K562
KM12 = test system: KM12
MOLT-4 = test system: MOLT-4
NCI-H23 = test system: NCI-H23
OVCAR-4 = test system: OVCAR-4
OVCAR-5 = test system: OVCAR-5
OVCAR-8 = test system: OVCAR-8
RXF 393 = test system: RXF 393
SF-539 = test system: SF-539
SK-MEL-2 = test system: SK-MEL-2
SNB-19 = test system: SNB-19
TK-10 = test system: TK-10
RPMI-8226 = test system: RPMI-8226

Row | Structure (SMILES) | GI50 (EKVX) | GI50 (HCT-15) [µM] | GI50 (HL-60) | GI50 (HT-29) | GI50 (K562) | GI50 (KM12) | GI50 (MOLT-4) | GI50 (NCI-H23) | GI50 (OVCAR-4) | GI50 (OVCAR-5) | GI50 (OVCAR-8) | GI50 (RXF 393) | GI50 (SF-539) | GI50 (SK-MEL-2) | GI50 (SNB-19) | GI50 (TK-10) | GI50 (RPMI-8226)
1 | Cc1ccc(S(=O)(=O)N(/N=C(\N)Oc2ccc(Cl)cc2)C(=N)Oc2ccc(Cl)cc2)cc1 | > 100 µM (inactive) | > 100 | > 100 µM (inactive) | > 100 µM (inactive) | > 100 µM (inactive) | > 100 µM (inactive) | > 100 µM (inactive) | > 100 µM (inactive) | > 100 µM (inactive) | > 100 µM (inactive) | > 100 µM (inactive) | 74.1 µM (inactive) | > 100 µM (inactive) | > 100 µM (inactive) | > 100 µM (inactive) | > 100 µM (inactive) | 
2 | O=C1NC(=S)NC(=O)C1=Cc1ccc([N+](=O)[O-])o1 | 21.1 µM (inactive) | 17 | 27.1 µM (inactive) | 23.2 µM (inactive) | 23.9 µM (inactive) | 46.6 µM (inactive) | 19.7 µM (inactive) | 16.9 µM (inactive) | 17.3 µM (inactive) | 20.3 µM (inactive) | 29.4 µM (inactive) | 19.3 µM (inactive) | 22.9 µM (inactive) | 46.9 µM (inactive) | > 100 µM (inactive) | 61 µM (inactive) | 20.3 µM (inactive)
3 | C/C(=C\Cc1cc(O)ccc1O)CCc1c(C)cc(O)c(C=O)c1C [PANICEIN B3] | 31.1 µM (inactive) | 27.4 | 34.6 µM (inactive) | 20.4 µM (inactive) | > 100 µM (inactive) | 32.3 µM (inactive) | > 100 µM (inactive) | 22.5 µM (inactive) | 26.4 µM (inactive) |  | 17.1 µM (inactive) | 15.9 µM (inactive) | 18.5 µM (inactive) | 23 µM (inactive) | 44.5 µM (inactive) | 34.8 µM (inactive) | > 100 µM (inactive)
4 | [O-][S+]1CSSC1 | 31.3 µM (inactive) |  | 2.56 µM (inactive) | 7.64 µM (inactive) | 3.07 µM (inactive) | 13.9 µM (inactive) | 5.36 µM (inactive) | 28.7 µM (inactive) | 16.7 µM (inactive) | 16.8 µM (inactive) | 19.6 µM (inactive) | 19.9 µM (inactive) | 19.7 µM (inactive) | 15.6 µM (inactive) | 41.6 µM (inactive) | 23.7 µM (inactive) | 
5 | COc1cc2c3cc1Oc1c(OC)c(OC)cc4c1[C@@H](Cc1ccc(O)c(c1)Oc1ccc(cc1)C[C@@H]3N(C)CC2)N(C)CC4.c1ccccc1 | 13.9 µM (inactive) | 12.3 | 10.2 µM (inactive) | 10.7 µM (inactive) | 8.69 µM (inactive) | 10.9 µM (inactive) | 10.9 µM (inactive) | 24.1 µM (inactive) |  | 30.6 µM (inactive) | 16.8 µM (inactive) | 12.4 µM (inactive) | 3.71 µM (inactive) | 16.9 µM (inactive) | 20.4 µM (inactive) | 17.8 µM (inactive) | 16.3 µM (inactive)
6 | c1cc(N(CCn2cccn2)CCn2cccn2)cc(N(CCn2cccn2)CCn2cccn2)c1 | > 100 µM (inactive) | > 100 | > 100 µM (inactive) |  | > 100 µM (inactive) | > 100 µM (inactive) | > 100 µM (inactive) |  | > 100 µM (inactive) |  | > 100 µM (inactive) | > 100 µM (inactive) |  | > 100 µM (inactive) | > 100 µM (inactive) | > 100 µM (inactive) | > 100 µM (inactive)
7 | O=C1CC(CC(=O)C2CCCCC2=O)C(=O)N1 (configuration not stated) | > 100 µM (inactive) |  | > 100 µM (inactive) | > 100 µM (inactive) | > 100 µM (inactive) | > 100 µM (inactive) |  | > 100 µM (inactive) | > 100 µM (inactive) | > 100 µM (inactive) | > 100 µM (inactive) | > 100 µM (inactive) | > 100 µM (inactive) |  | > 100 µM (inactive) | > 100 µM (inactive) | > 100 µM (inactive)
8 | O=C1NC2(CCCC2)C2CCCCC12O (configuration not stated) | > 100 µM (inactive) | > 100 | > 100 µM (inactive) | > 100 µM (inactive) | > 100 µM (inactive) | > 100 µM (inactive) | > 100 µM (inactive) | > 100 µM (inactive) | > 100 µM (inactive) | > 100 µM (inactive) | > 100 µM (inactive) | > 100 µM (inactive) | > 100 µM (inactive) | > 100 µM (inactive) | > 100 µM (inactive) | > 100 µM (inactive) | > 100 µM (inactive)
9 | CC1(C)CC(N2CCN(C3CC(C)(C)NC(C)(C)C3)CC2)CC(C)(C)N1 | > 100 µM (inactive) | > 100 | > 100 µM (inactive) | > 100 µM (inactive) | > 100 µM (inactive) | > 100 µM (inactive) | > 100 µM (inactive) | > 100 µM (inactive) | > 100 µM (inactive) | > 100 µM (inactive) | > 100 µM (inactive) | > 100 µM (inactive) | > 100 µM (inactive) |  | > 100 µM (inactive) | > 100 µM (inactive) | > 100 µM (inactive)
10 | O=C(/C=C/c1ccc(Cl)c(Cl)c1)c1ccccc1Cl | 17.3 µM (inactive) | 5.45 | 6.61 µM (inactive) | 6.07 µM (inactive) | 7.16 µM (inactive) | 8.13 µM (inactive) | 27.7 µM (inactive) | 13.4 µM (inactive) | 14.1 µM (inactive) | 16.8 µM (inactive) | 6 µM (inactive) | 17.2 µM (inactive) | 3.63 µM (inactive) |  | 10.3 µM (inactive) | 21.6 µM (inactive) | 8.49 µM (inactive)
11 | CCOC(=O)/C(=C/c1cc(OC)ccc1OC)CC(=O)O | > 100 µM (inactive) | > 43.7 | > 31.6 µM (inactive) | > 94.4 µM (inactive) | > 31.6 µM (inactive) | > 100 µM (inactive) | > 25.7 µM (inactive) | > 100 µM (inactive) | > 100 µM (inactive) |  | > 100 µM (inactive) | > 100 µM (inactive) | > 100 µM (inactive) | 19.5 µM (inactive) | > 100 µM (inactive) | > 100 µM (inactive) | 
12 | COc1cc(C2C(Cl)C(=O)N2n2cnc3ccccc3c2=O)ccc1O (configuration not stated) | > 100 µM (inactive) | 87.3 | > 10 µM (inactive) | > 100 µM (inactive) |  | > 100 µM (inactive) | > 100 µM (inactive) | 39.1 µM (inactive) | 94.4 µM (inactive) | > 100 µM (inactive) | > 100 µM (inactive) | 67.6 µM (inactive) |  | > 100 µM (inactive) | > 100 µM (inactive) | > 100 µM (inactive) | 60 µM (inactive)
13 | COc1ccc(-c2oc3c(OC)c(OC)c(OC)c(O)c3c(=O)c2OC)cc1O | 0.836 µM (active) | 0.35 | < 0.01 µM (active) | 8.87 µM (inactive) | < 0.01 µM (active) | 0.556 µM (active) | 0.0989 µM (active) | 0.254 µM (active) | 9.23 µM (inactive) | 5.4 µM (inactive) | 0.341 µM (active) | 0.0559 µM (active) | 0.0327 µM (active) | 0.0546 µM (active) | 0.347 µM (active) | 2.42 µM (inactive) | 0.121 µM (active)
14 | Oc1ccncc1-c1cnccc1O | > 100 µM (inactive) | > 100 | > 100 µM (inactive) | > 100 µM (inactive) | > 100 µM (inactive) | > 100 µM (inactive) | > 100 µM (inactive) | > 100 µM (inactive) |  |  | > 100 µM (inactive) | > 100 µM (inactive) | > 100 µM (inactive) |  |  | > 100 µM (inactive) | > 100 µM (inactive)
15 | COc1cc(/C=N/N=C(\N)NO)c(Cl)cc1O | 43.8 µM (inactive) | 46.5 |  | 44.5 µM (inactive) | 83.2 µM (inactive) | 45.3 µM (inactive) | > 100 µM (inactive) | 35.5 µM (inactive) | 43.8 µM (inactive) | 46.7 µM (inactive) | 49.5 µM (inactive) | 81.5 µM (inactive) | 81.3 µM (inactive) | 71.6 µM (inactive) | > 100 µM (inactive) |  | > 100 µM (inactive)
16 | C=C(COC(C)=O)CC(OC(C)=O)c1ccccc1 (configuration not stated) | > 100 µM (inactive) | > 100 | > 100 µM (inactive) | > 100 µM (inactive) | > 100 µM (inactive) | > 100 µM (inactive) | 52.2 µM (inactive) | > 100 µM (inactive) | > 100 µM (inactive) | > 100 µM (inactive) | > 100 µM (inactive) | > 100 µM (inactive) | > 100 µM (inactive) | > 100 µM (inactive) | > 100 µM (inactive) | > 100 µM (inactive) | > 100 µM (inactive)
17 | O=[N+]([O-])c1ccc(/C=C/c2csnn2)cc1 | > 100 µM (inactive) | > 100 | > 100 µM (inactive) | > 100 µM (inactive) | > 100 µM (inactive) | > 100 µM (inactive) | > 100 µM (inactive) | > 100 µM (inactive) | > 100 µM (inactive) | > 100 µM (inactive) | > 100 µM (inactive) | > 100 µM (inactive) | > 100 µM (inactive) | > 100 µM (inactive) | > 100 µM (inactive) | > 100 µM (inactive) | > 100 µM (inactive)
18 | C#CCN(Cc1ccc2nc(-c3ccccc3)c(N)nc2c1)c1cc(OC)c(OC)c(OC)c1 | 31.2 µM (inactive) | 31.9 | 17.9 µM (inactive) | 23.4 µM (inactive) | 23.8 µM (inactive) | > 10 µM (inactive) | 12.5 µM (inactive) | 25.1 µM (inactive) | 27.9 µM (inactive) | 48.5 µM (inactive) | 30.4 µM (inactive) | 25.5 µM (inactive) | 36.6 µM (inactive) | 23.1 µM (inactive) | 40.5 µM (inactive) | 46.1 µM (inactive) | 11.2 µM (inactive)
